{"source": "patent US6303596A", "about": "“Use of taurolidine for treatment of leukemias” (priority 2000, dated 2001)", "key": {"GM5387 (fibroblasts)": {"system": "GM5387 (fibroblasts)", "assay": "trypan blue exclusion, GM5387", "format": "cell-based, human", "conditions": "GM5387, after taurolidine treatment", "protocol": "FIGS. 11A and 11B depict cell viability and growth rates for GM5387 cell line following taurolidine treatment, in terms of % trypan blue negative cells and % cell number, respectively. Cells were treated with various concentrations of taurolidine for 4 hours in AIM-V+0.01% BCS. After aliquots were collected for LDH assay, the remainder of the culture was rinsed in HBSS and resuspended in RPMI+10% BCS without taurolidine. Counts of trypan blue-negative cells (FIG. 11A), and total cell number (FIG. 11B), were recorded daily thereafter (with the measurement at Day 1 being made immediately after the 4 hour taurolidine treatment). Conditions were: no treatment (open circles); 25 μg/ml taurolidine (closed circles); 50 μg/ml taurolidine (open squares); 100 μg/ml taurolidine (closed squares); and vehicle alone (closed triangles). Doubling times were determined under each condition, and expressed as a percentage of the rate of doubling of untreated cells. These values are located to the right of the growth curves in (FIG. 11B). […]\n(§1) HL-60 cells treated with 50 μl taurolidine. In these samples, LDH present in the culture medium was 8.3±2.3% of that released by completely lysed cells, compared with 2.3±0.8% measured in control cultures. […] After 4 hour treatment, cells were rinsed and returned to growth medium and monitored for viability and growth over the following 3 days. […]"}, "K562": {"system": "K562", "assay": "TUNEL / propidium iodide flow cytometry, K562", "format": "cell-based, human", "conditions": "taurolidine 100 μg/ml or anisomycin 1 μg/ml for 4 h, assayed at 24 hours, mean ± SD", "protocol": "(§2) In the second method, DNA fragmentation was detected via TUNEL assay according to the manufacturer's instructions. With this methodology, 2×10^6 cells were fixed with 2% paraformaldehyde, permeabilized with 0.1% Triton X-100/0.1% citrate, incubated at 37° C. with terminal deoxynucleotidyl transferase and FITC-dUTP, rinsed and analyzed by flow cytometry. Enhanced FITC signal indicates apoptosis-specific DNA fragmentation. Gavriali, et al, \"Identification of programmed cell death in situ via specific labeling of nuclear DNA fragmentation,\" J Cell Biol 119:493 (1992). Parallel aliquots of unfixed cells were treated with PI and FITC-conjugated anti-CD14 and analyzed by flow cytometry, in order to identify cells with permeable cell membranes (since PI binds to DNA but is excluded from cells with intact plasma membranes) and also to determine the cell-specificity of the apoptotic signal.\nIn another study, TUNEL assays were performed on all cell lines 6 hours after cells were initially exposed to taurolidine (cells were treated for 4 hours, rinsed, and then incubated for 2 more hours before TUNEL assay was performed).\n. Taurolidine and anisomycin induced apoptosis in MM6, HL-60, and Jurkat cells (Table VIII). MM6 and HL-60 cells were similarly effected, with >80% TUNEL-positive cells after 6 hours. Jurkat cells were less sensitive, with approximately 50% of cells induced to undergo apoptosis after taurolidine treatment. After 6 hours, 73% of anisomycin-treated REH cells were apoptotic, with less than 20% of taurolidine-treated REH cells being TUNEL-positive. However, assay of cells 24 hours after\n^a Analysis by flow cytometry after staining cells with propidium\niodide and processing for TUNEL.\nData are percent of total cell-size events, and are expressed as mean ±\nCells were treated for 4 hours with taurolidine (100 μg/ml) or\nanisomycin (1 μg/ml), and then assayed at 6 hours.\nData are percent of total cell-sized events, and are expressed as mean ±\nanisomycin (1 μg/ml), and then assayed at 24 hours."}, "[1]": {"assay": "propidium iodide flow cytometry, PBMC all cells, whole blood", "format": "cell-based", "conditions": "human, mean ± SD of 2 experiments", "protocol": "FIGS. 15A, 15B, and 15C depict TUNEL analysis of PBMC treated with taurolidine in whole blood, for control cells, taurolidine-treated cells, and anisomycin-treated cells, respectively . Cells were incubated with 500 μg/ml taurolidine for 4 hours, resuspended in fresh medium, incubated for two hours further and processed for TUNEL analysis. Parallel samples were stained with FITC-conjugated anti-CD14 and PI as described herein. Ten thousand events were recorded per sample. TUNEL signal (x -axis) is a measure of DNA fragmentation, while FSC (y-axis) is related to cell size. TUNEL-negative lymphocytes are bounded by rectangle R 1, while TUNEL-negative monocytes (CD 14 positive cells) are bounded by rectangle R2. […]\nas §2, with “Enhanced FITC signal indicates apoptosis-specific DNA fragmentation. Gavriali, et al, \"Identification of programmed cell death in situ via specific labeling of nuclear DNA fragmentation,\" J Cell Biol 119:493 (1992).” left out, “signal. […]” for “signal.”"}, "[2]": {"system": "leukemia-derived cell lines", "assay": "trypan blue exclusion, cell lines taken together", "format": "cell-based, human", "protocol": "In these experiments, integrity of cell membranes following taurolidine treatment was assessed by exclusion of trypan blue and by measuring the release of LDH in MM6, K-562, HL-60, and REH cells. Since BCS contains significant amounts of LDH, these experiments were conducted on cells cultured in AIM-V+0.01% BCS. Four hour treatment of cells was conducted in AIM-V containing 0.01% BCS in order to allow subsequent LDH assay without interference from BCS (which occurs in when normal culture medium, containing 10% BCS, is used). Thus, MM6 cells (5×10^5 cells/ml) were treated with taurolidine for four hours in AIM-V+0.01% BCS, after which an aliquot of the cell suspension was removed for measurement of LDH release. A parallel aliquot of cells was lysed by three cycles of freeze/thaw and the quantity of LDH released was taken to be 100%. Remaining cells were rinsed in HBSS and resuspended in growth medium for measurement of growth rates.\nas §1"}}}
{"smiles": "O=S1(=O)CCN(CN2CCS(=O)(=O)NC2)CN1", "note": "[taurolidine, 4,4'-methylenebis(perhydro-1,2,4-thiadiazin 1,1-dioxide)]", "values": [{"measurement": "trypan blue staining during 4 day growth", "setting": "GM5387 (fibroblasts)", "result": "did not demonstrate a significant increase in trypan blue staining"}, {"measurement": "trypan blue staining during 4 day growth", "setting": "GM5387 (fibroblasts); listed as Taurolidine", "result": "cells remained trypan blue negative"}, {"measurement": "% TUNEL-positive", "setting": "K562", "result": "approximately 20%"}, {"measurement": "cytotoxicity at 6 h", "setting": "[1]; 200 μg/ml", "result": "1.6 ± 0.6", "unit": "%"}, {"measurement": "cytotoxicity at 6 h", "setting": "[1]; 500 μg/ml", "result": "1.4 ± 0.2", "unit": "%"}, {"measurement": "trypan blue assay on Day 1", "setting": "[2]; all samples, 25 to 100 μg/ml taurolidine, after 4 h treatment", "result": "equivalent to control"}, {"measurement": "progressive permeability to trypan blue over following days", "setting": "[2]; leukemia-derived cell lines except K562, taurolidine 50 μg/ml or greater", "result": "permeability to trypan blue"}]}
